Patent EP1027349B1, “TETRAHYDROFURAN PHOSPHATE- AND HYDROXY ESTERS, AS PRODRUGS FOR THE CORRESPONDING ANTIFUNGAL AGENT” (SCHERING CORPORATION, priority 1997, dated 1999)

Assays:
[1] = Plasma concentrations and PK parameters of the compound of formula IV in mice after intravenous administration of di-NMG salt prodrugs; format: in vivo, mouse; set-up: AUC: unit not given here; settings: for Concentrations of the compound of formula IV in pooled mouse plasma, Pool 1 / Concentrations of the compound of formula IV in pooled mouse plasma, Pool 2: 2 mice/pool; for AUC: Table 3 summary: area under the curve from time zero to 24 hrs of the compound of formula IV in mouse plasma; for AUC / Bioavallability: intravenous, 20 mg/kg formula IV dose equivalent of the di-NMG salt in sterile water; for Bioavallability: of the compound of formula IV in mouse plasma
[2] = test system: Aspergillus species (n=30); assay: In vitro antifungal activity (MIC), Espinel-Ingroff's methodology; settings: for MIC Range: Aspergillus species (n=30); for MIC: Aspergillus, read-out: G mean MICs
[3] = Antifungal activity in in vivo tests in mice; settings: compared with itraconazole, fluconazole and azoles of USP 5,039,676 and WO 93/09114, result in words
Candida species (n=41) = assay: In vitro antifungal activity (MIC), NCCLS standard M27A; settings: for MIC Range: Candida species (n=41); for MIC: Candida, read-out: G mean MICs
[4] = test system: Cryptococcus neoformans (n=9); assay: as above; settings: for MIC Range: Cryptococcus neoformans (n=9); for MIC: Cryptococcus neoformans, read-out: G mean MICs
Aspergillus fumigatus = assay: Pulmonary Aspergillus fumigatus infection model in mice (Loebenberg et al.)
[5] = Pharmacokinetic (metabolism) studies in human tissues and serum; format: in vitro ADME; settings: result in words
[6] = 0.017 hr (1 min) after intravenous administration of 20 mg/kg compound of formula IV dose equivalent of the di-NMG salt in sterile water
[7] = 0.017 hr (1 min) after intravenous administration of 20 mg/kg compound of formula IV dose equivalent of the di-NMG salt in sterile water, mean of 2 pools
[8] = 0.05 hr (3 min) after intravenous administration of 20 mg/kg compound of formula IV dose equivalent of the di-NMG salt in sterile water
[9] = 0.05 hr (3 min) after intravenous administration of 20 mg/kg compound of formula IV dose equivalent of the di-NMG salt in sterile water, mean of 2 pools
[10] = 0.083 hr (5 min) after intravenous administration of 20 mg/kg compound of formula IV dose equivalent of the di-NMG salt in sterile water
[11] = 0.083 hr (5 min) after intravenous administration of 20 mg/kg compound of formula IV dose equivalent of the di-NMG salt in sterile water, mean of 2 pools
[12] = 0.25 hr (15 min) after intravenous administration of 20 mg/kg compound of formula IV dose equivalent of the di-NMG salt in sterile water
[13] = 0.25 hr (15 min) after intravenous administration of 20 mg/kg compound of formula IV dose equivalent of the di-NMG salt in sterile water, mean of 2 pools
[14] = 0.5 hr (30 min) after intravenous administration of 20 mg/kg compound of formula IV dose equivalent of the di-NMG salt in sterile water
[15] = 0.5 hr (30 min) after intravenous administration of 20 mg/kg compound of formula IV dose equivalent of the di-NMG salt in sterile water, mean of pools
[16] = 1 hr. after intravenous administration of 20 mg/kg compound of formula IV dose equivalent of the di-NMG salt in sterile water
[17] = 1 hr. after intravenous administration of 20 mg/kg compound of formula IV dose equivalent of the di-NMG salt in sterile water, mean of 2 pools
[18] = 3 hr. after intravenous administration of 20 mg/kg compound of formula IV dose equivalent of the di-NMG salt in sterile water
[19] = 3 hr. after intravenous administration of 20 mg/kg compound of formula IV dose equivalent of the di-NMG salt in sterile water, mean of 2 pools
[20] = 6 hr. after intravenous administration of 20 mg/kg compound of formula IV dose equivalent of the di-NMG salt in sterile water
[21] = 6 hr. after intravenous administration of 20 mg/kg compound of formula IV dose equivalent of the di-NMG salt in sterile water, mean of 2 pools
[22] = 24 hr. after intravenous administration of 20 mg/kg compound of formula IV dose equivalent of the di-NMG salt in sterile water
[23] = 24 hr. after intravenous administration of 20 mg/kg compound of formula IV dose equivalent of the di-NMG salt in sterile water, mean of 2 pools

CC[C@@H]([C@H](C)OC(=O)CCCCOP(=O)(O)O)n1ncn(-c2ccc(N3CCN(c4ccc(OC[C@@H]5CO[C@@](Cn6cncn6)(c6ccc(F)cc6F)C5)cc4)CC3)cc2)c1=O [Formula V.2NMG, reference compound]
Concentrations of the compound of formula IV in pooled mouse plasma, Pool 1 [1, 6]: 0 ng/mL
Concentrations of the compound of formula IV in pooled mouse plasma, Pool 2 [1, 6]: 0 ng/mL
Concentrations of the compound of formula IV in pooled mouse plasma, Mean [1, 7]: 0 ng/mL
Concentrations of the compound of formula IV in pooled mouse plasma, Pool 1 [1, 8]: 738 ng/mL
Concentrations of the compound of formula IV in pooled mouse plasma, Pool 2 [1, 8]: 663 ng/mL
Concentrations of the compound of formula IV in pooled mouse plasma, Mean [1, 9]: 723 ng/mL
Concentrations of the compound of formula IV in pooled mouse plasma, Pool 1 [1, 10]: 1040 ng/mL
Concentrations of the compound of formula IV in pooled mouse plasma, Pool 2 [1, 10]: 1430 ng/mL
Concentrations of the compound of formula IV in pooled mouse plasma, Mean [1, 11]: 1240 ng/mL
Concentrations of the compound of formula IV in pooled mouse plasma, Pool 1 [1, 12]: 1220 ng/mL
Concentrations of the compound of formula IV in pooled mouse plasma, Pool 2 [1, 12]: 407 ng/mL
Concentrations of the compound of formula IV in pooled mouse plasma, Mean [1, 13]: 814 ng/mL
Concentrations of the compound of formula IV in pooled mouse plasma, Pool 1 [1, 14]: 1990 ng/mL
Concentrations of the compound of formula IV in pooled mouse plasma, Mean [1, 15]: 1990 ng/mL
Concentrations of the compound of formula IV in pooled mouse plasma, Pool 1 [1, 16]: 2730 ng/mL
Concentrations of the compound of formula IV in pooled mouse plasma, Pool 2 [1, 16]: 2630 ng/mL
Concentrations of the compound of formula IV in pooled mouse plasma, Mean [1, 17]: 2680 ng/mL
Concentrations of the compound of formula IV in pooled mouse plasma, Pool 1 [1, 18]: 923 ng/mL
Concentrations of the compound of formula IV in pooled mouse plasma, Pool 2 [1, 18]: 2510 ng/mL
Concentrations of the compound of formula IV in pooled mouse plasma, Mean [1, 19]: 1720 ng/mL
Concentrations of the compound of formula IV in pooled mouse plasma, Pool 1 [1, 20]: 2590 ng/mL
Concentrations of the compound of formula IV in pooled mouse plasma, Pool 2 [1, 20]: 1900 ng/mL
Concentrations of the compound of formula IV in pooled mouse plasma, Mean [1, 21]: 2250 ng/mL
Concentrations of the compound of formula IV in pooled mouse plasma, Pool 1 [1, 22]: 447 ng/mL
Concentrations of the compound of formula IV in pooled mouse plasma, Pool 2 [1, 22]: 515 ng/mL
Concentrations of the compound of formula IV in pooled mouse plasma, Mean [1, 23]: 481 ng/mL
AUC [1]: 36.7
Bioavallability [1]: 30%

CC[C@@H]([C@H](C)O)n1ncn(-c2ccc(N3CCN(c4ccc(OC[C@@H]5CO[C@@](Cn6cncn6)(c6ccc(F)cc6F)C5)cc4)CC3)cc2)c1=O [Formula IV, reference compound]
MIC Range [2]: ≤0.0156 to 1 µg/mL
MIC [2]: 0.1 µg/mL
antifungal activity in in vivo tests [3]: unexpectedly better than that of existing antifungal agents
MIC Range (Candida species (n=41)): ≤0.0156 to 8 µg/mL
MIC (Candida species (n=41)): 0.2 µg/mL
MIC Range [4]: ≤0.0150 to 0.5 µg/mL
MIC [4]: 0.04 µg/mL

OC(Cn1cncn1)(Cn1cncn1)c1ccc(F)cc1F [fluconazole, reference compound]
activity in Aspergillus pulmonary infection model (Aspergillus fumigatus; mice, result in words): inactive

CC[C@@H]([C@H](C)OC(=O)CCCOP(=O)(O)O)n1ncn(-c2ccc(N3CCN(c4ccc(OC[C@@H]5CO[C@@](Cn6cncn6)(c6ccc(F)cc6F)C5)cc4)CC3)cc2)c1=O [Formula II.2NMG]
Concentrations of the compound of formula IV in pooled mouse plasma, Pool 1 [1, 6]: 171 ng/mL
Concentrations of the compound of formula IV in pooled mouse plasma, Pool 2 [1, 6]: 164 ng/mL
Concentrations of the compound of formula IV in pooled mouse plasma, Mean [1, 7]: 168 ng/mL
Concentrations of the compound of formula IV in pooled mouse plasma, Pool 1 [1, 8]: 378 ng/mL
Concentrations of the compound of formula IV in pooled mouse plasma, Pool 2 [1, 8]: 297 ng/mL
Concentrations of the compound of formula IV in pooled mouse plasma, Mean [1, 9]: 338 ng/mL
Concentrations of the compound of formula IV in pooled mouse plasma, Pool 1 [1, 10]: 798 ng/mL
Concentrations of the compound of formula IV in pooled mouse plasma, Pool 2 [1, 10]: 817 ng/mL
Concentrations of the compound of formula IV in pooled mouse plasma, Mean [1, 11]: 808 ng/mL
Concentrations of the compound of formula IV in pooled mouse plasma, Pool 1 [1, 12]: 1570 ng/mL
Concentrations of the compound of formula IV in pooled mouse plasma, Pool 2 [1, 12]: 2720 ng/mL
Concentrations of the compound of formula IV in pooled mouse plasma, Mean [1, 13]: 2150 ng/mL
Concentrations of the compound of formula IV in pooled mouse plasma, Pool 1 [1, 14]: 3020 ng/mL
Concentrations of the compound of formula IV in pooled mouse plasma, Pool 2 [1, 14]: 2340 ng/mL
Concentrations of the compound of formula IV in pooled mouse plasma, Mean [1, 15]: 2680 ng/mL
Concentrations of the compound of formula IV in pooled mouse plasma, Pool 1 [1, 16]: 4460 ng/mL
Concentrations of the compound of formula IV in pooled mouse plasma, Pool 2 [1, 16]: 3950 ng/mL
Concentrations of the compound of formula IV in pooled mouse plasma, Mean [1, 17]: 4210 ng/mL
Concentrations of the compound of formula IV in pooled mouse plasma, Pool 1 [1, 18]: 5160 ng/mL
Concentrations of the compound of formula IV in pooled mouse plasma, Pool 2 [1, 18]: 5630 ng/mL
Concentrations of the compound of formula IV in pooled mouse plasma, Mean [1, 19]: 5400 ng/mL
Concentrations of the compound of formula IV in pooled mouse plasma, Pool 1 [1, 20]: 5960 ng/mL
Concentrations of the compound of formula IV in pooled mouse plasma, Pool 2 [1, 20]: 3590 ng/mL
Concentrations of the compound of formula IV in pooled mouse plasma, Mean [1, 21]: 4780 ng/mL
Concentrations of the compound of formula IV in pooled mouse plasma, Pool 1 [1, 22]: 915 ng/mL
Concentrations of the compound of formula IV in pooled mouse plasma, Pool 2 [1, 22]: 992 ng/mL
Concentrations of the compound of formula IV in pooled mouse plasma, Mean [1, 23]: 954 ng/mL
AUC [1]: 79.1
Bioavallability [1]: 65%

CC[C@@H]([C@H](C)OC(=O)CCCOP(=O)(O)O)n1ncn(-c2ccc(N3CCN(c4ccc(OC[C@@H]5CO[C@@](Cn6cncn6)(c6ccc(F)cc6F)C5)cc4)CC3)cc2)c1=O [Formula II]
MIC [2]: 5.9 µg/mL
metabolism [5]: metabolized to the compound of formula IV via the metabolite represented by formula III
survival (Aspergillus fumigatus; doses of 10 mg/kg, mice with a pulmonary Aspergillus fumigatus infection): 70%
MIC (Candida species (n=41)): 7.5 µg/mL
MIC Range [4]: 0.125 to 32 µg/mL
MIC [4]: 1.9 µg/mL

CC[C@@H]([C@H](C)OC(=O)CCCO)n1ncn(-c2ccc(N3CCN(c4ccc(OC[C@@H]5CO[C@@](Cn6cncn6)(c6ccc(F)cc6F)C5)cc4)CC3)cc2)c1=O [Formula III, 2(S)-[4-{4-{4-{4-[[(R-Cis) -2-(2,4-difluorophenyl)-tetrahydro-2-(1H-1,2,4-triazol-1-ylmethyl)-4-furanyl]methoxy]phenyl]-1-piperazinyl]phenyl]-4,5-dihydro-5-oxo-1H-1,2,4-triazol-1-yl]-1-(S)-methylbutyl-4-hydroxy-butanoate]
MIC Range [2]: 0.0313 to 2 µg/mL
MIC [2]: 0.2 µg/mL
antifungal activity in in vivo tests [3]: unexpectedly better than that of existing antifungal agents
MIC Range (Candida species (n=41)): ≤ 0.0156 to 8 µg/mL
MIC (Candida species (n=41)): 0.3 µg/mL
MIC Range [4]: 0.0156 to 0.5 µg/mL
MIC [4]: 0.09 µg/mL
